Reference: patent publication US12091425B2 (AMGEN INC., priority 2016, dated 2024)

What follows are compounds tested against T1, Mcl-1/Bim interaction, recombinant human Mcl-1 (171-327) (Homo sapiens, UniProt Q07820) (assay: Cell free Mcl-1: Bim Affinity Assay (Mcl-1 HTRF)). Settings: cell free Mcl-1:Bim TR-FRET, recombinant human Mcl-1 (171-327).
T1 construct: made in house
T1 sequence (Q07820 171-327): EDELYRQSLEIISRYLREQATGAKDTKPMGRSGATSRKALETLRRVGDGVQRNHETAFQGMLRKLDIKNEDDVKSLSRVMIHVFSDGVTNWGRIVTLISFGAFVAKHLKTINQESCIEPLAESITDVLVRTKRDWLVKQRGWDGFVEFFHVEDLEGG
Format: binding
Outline: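 Biotin-Bim(51-76) peptide, TR-FRET readout, overnight incubation; IC50 from duplicate competition curves, 4-parameter fit.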
For C[C@@H]1CC/C=C/[C@H](NC(=O)N(C)C)[C@@H]2CC[C@H]2CN2C[C@@]3(CCCc4cc(Cl)ccc43)COc3ccc(cc32)C(=O)NS1(=O)=O [Example 601, 3-((1S,3′R,6′R,7′S,8′E,12′R)-6-chloro-12′-methyl-13′,13′-dioxido-15′-oxo-3,4-dihydro-2H-spiro[naphthalene-1,22′-[20]oxa[13]thia[1,14]diazatetracyclo[14.7.2.0^3,6.0^19,24]pentacosa [8,16,18,24]tetraen]-7′-yl)-1,1-dimethylurea-trifluoroacetate], the IC50 was 1.33 nM.
C[C@@H]1CC/C=C/C(=O)[C@@H]2CC[C@H]2CN2C[C@@]3(CCCc4cc(Cl)ccc43)COc3ccc(cc32)C(=O)NS1(=O)=O [Example 604, (1S,3′R,6′R,8′E,12′R)-6-chloro-12′-methyl-3,4-dihydro-2H,7′H,15′H-spiro[naphthalene-1,22′-[20]oxa[13]thia[1,14]diazatetracyclo[14.7.2.0^3,6.0^19,24]pentacosa [8,16,18,24]tetraene]-7′,15′-dione 13′,13′-dioxide] gave an IC50 of 9.58 nM.
C[C@@H]1CC/C=C/[C@H](O)[C@@H]2CC[C@H]2CN2C[C@@]3(CCc4cc(Cl)ccc43)COc3ccc(cc32)C(=O)NS1(=O)=O [Example 698, (1S,3′R,6′R,7′S,8′E,12′R)-5-chloro-7′-hydroxy-12′-methyl-2,3-dihydro-15′H-spiro[indene-1,22′-[20]oxa[13]thia[1,14]diazatetracyclo[14.7.2.0^3,6.0^19,24]pentacosa [8,16,18,24]tetraen]-15′-one 13′,13′-dioxide] was tested, and the IC50 was 0.679 nM.
Work on C[C@@H]1CCC[C@H](O)[C@@H]2CC[C@H]2CN2C[C@@]3(CCCc4cc(Cl)ccc43)COc3ccc(cc32)C(=O)NS1(=O)=O [Example 761, (1S,3′R,6′R,7′S,11′R)-6-chloro-7′-hydroxy-11′-methyl-3,4-dihydro-2H,14′H-spiro[naphthalene-1,21′-[19]oxa[12]thia[1,13]diazatetracyclo[13.7.2.0^3,6.0^18,23]tetracosa[15,17,23]trien]-14′-one 12′,12′-dioxide] yielded an IC50 of 1.78 nM.
With CC[C@@H]1C/C=C/[C@H](O)[C@@H]2CC[C@H]2CN2C[C@@]3(CCCc4cc(Cl)ccc43)COc3ccc(cc32)C(=O)NS1(=O)=O [Example 762, (1S,3′R,6′R,7′S,8′E,11′R)-6-chloro-7′-hydroxy-11′-ethyl-3,4-dihydro-2H,14′H-spiro[naphthalene-1,21′-[19]oxa[12]thia[1,13]diazatetracyclo[13.7.2.0^3,6.0^18,23]tetracosa[8,15,17,23]tetraen]-14′-one 12′,12′-dioxide] the IC50 was 0.576 nM.
For CC[C@@H]1C/C=C/[C@H](OC)[C@@H]2CC[C@H]2CN2C[C@@]3(CCCc4cc(Cl)ccc43)COc3ccc(cc32)C(=O)NS1(=O)=O [Example 763, (1S,3′R,6′R,7′S,8′E,11′R)-6-chloro-11′-ethyl-7′-methoxy-3,4-dihydro-2H,14′H-spiro[naphthalene-1,21′-[19]oxa[12]thia[1,13]diazatetracyclo[13.7.2.0^3,6.0^18,23]tetracosa[8,15,17,23]tetraen]-14′-one 12′,12′-dioxide], the IC50 was 2.93 nM.
For CC1(C)C/C=C/[C@H](O)[C@@H]2CC[C@H]2CN2C[C@@]3(CCCc4cc(Cl)ccc43)COc3ccc(cc32)C(=O)NS1(=O)=O [Example 769, (1S,3′R,6′R,7′S,8′E)-6-chloro-7′-hydroxy-11′,11′-dimethyl-3,4-dihydro-2H,14′H-spiro[naphthalene-1,21′-[19]oxa[12]thia[1,13]diazatetracyclo[13.7.2.0^3,6.0^18,23]tetracosa[8,15,17,23]tetraen]-14′-one 12′,12′-dioxide], the IC50 was 0.971 nM.
Work on CC1(C)CCC[C@H](O)[C@@H]2CC[C@H]2CN2C[C@@]3(CCCc4cc(Cl)ccc43)COc3ccc(cc32)C(=O)NS1(=O)=O [Example 770, (1S,3′R,6′R,7′S)-6-chloro-7′-hydroxy-11′,11′-dimethyl-3,4-dihydro-2H,14′H-spiro[naphthalene-1,21′-[19]oxa[12]thia[1,13]diazatetracyclo[13.7.2.0^3,6.0^18,23]tetracosa[15,17,23]trien]-14′-one 12′,12′-dioxide] yielded an IC50 of 1.33 nM.
O=C1NS(=O)(=O)C/C=C/C[C@H](O)[C@@H]2CC[C@H]2CN2C[C@@]3(CCCc4cc(Cl)ccc43)COc3ccc1cc32 [Example 771, (1S,3′R,6′R,7′S,9′E)-6-chloro-7′-hydroxy-3,4-dihydro-2H,14′H-spiro[naphthalene-1,21′-[19]oxa[12]thia[1,13]diazatetracyclo [13.7.2.0^3,6.0^18,23]tetracosa[9,15,17,23]tetraen]-14′-one 12′,12′-dioxide] was tested, and the IC50 was 4.09 nM.
O=C1NS(=O)(=O)CCOCC[C@H](O)[C@@H]2CC[C@H]2CN2C[C@@]3(CCCc4cc(Cl)ccc43)COc3ccc1cc32 [Example 779, (3′R,6′R,7S,22S)-6′-chloro-7-hydroxy-3′,4′-dihydro-2′H,15H-spiro[10,20-dioxa-13-thia-1,14-diazatetracyclo[14.7.2.0^3,6.0^19,24]pentacosa-16,18,24-triene-22, 1′-naphthalen]-15-one-13, 13-dioxide or (3′R,6′R,7R,22S)-6′-chloro-7-hydroxy-3′,4′-dihydro-2′H,15H-spiro[10,20-dioxa-13-thia-1,14-diazatetracyclo[14.7.2.0^3,6.0^19,24]pentacosa-16,18,24-triene-22, 1′-naphthalen]-15-one-13, 13-dioxide] gave an IC50 of 5.55 nM.
Compound CC[C@@H]1CC/C=C/[C@H](OC2COC2)[C@@H]2CC[C@H]2CN2C[C@@]3(CCCc4cc(Cl)ccc43)COc3ccc(cc32)C(=O)NS1(=O)=O [Example 783, (1S,3′R,6′R,7′S,8′E,12′R)-6-chloro-12′-ethyl-7′-(3-oxetanyloxy)-3,4-dihydro-2H,15′H-spiro[naphthalene-1,22′-[20]oxa[13]thia[1,14]diazatetracyclo [14.7.2.0^3,6.0^19,24]pentacosa[8,16,18,24]tetraen]-15′-one 13′,13′-dioxide] has an IC50 of 1.04 nM.
O=C1NS(=O)(=O)CC/C=C\C[C@H](O)[C@@H]2CC[C@H]2CN2C[C@@]3(CCCc4ccccc43)COc3ccc1cc32 [Example 807, (1S,3′R,6′R,7′S,9′Z)-7′-hydroxy-3,4-dihydro-2H,15′H-spiro[naphthalene-1,22′-[20]oxa[13]thia [1,14]diazatetracyclo[14.7.2.0^3,6.0^19,24]pentacosa[9,16,18,24]tetraen]-15′-one 13′,13′-dioxide] showed an IC50 of 42.3 nM.
O=C1NS(=O)(=O)C/C=C/CC[C@H](O)[C@@H]2CC[C@H]2CN2C[C@@]3(CCCc4cc(Cl)ccc43)COc3ccc1cc32 [Example 808, (1S,3′R,6′R,7′S,10′E)-6-chloro-7′-hydroxy-3,4-dihydro-2H,15′H-spiro[naphthalene-1,22′-[20]oxa[13]thia[1,14]diazatetracyclo[14.7.2.0^3,6.0^19,24]pentacosa [10,16,18,24]tetraen]-15′-one 13′,13′-dioxide] was tested, and the IC50 was 1.54 nM.
O=C1NS(=O)(=O)CCOC/C=C/[C@@H]2CC[C@H]2CN2C[C@@]3(CCc4cc(Cl)ccc43)COc3ccc1cc32 [Example 817, (3R,6S,7E,22S)-5′-chloro-2′,3′-dihydro-15H-spiro[10,20-dioxa-13-thia-1,14-diazatetracyclo[14.7.2.0^3,6.0^19,24]pentacosa-7,16,18,24-tetraene-22,1′-inden]-15-one 13,13-dioxide] was tested, and the IC50 was 29.3 nM.
With O=C1NS(=O)(=O)CCCCC[C@@H]2CC[C@H]2CN2C[C@@]3(CCCc4cc(Cl)ccc43)COc3ccc1cc32 [Example 818, (1S,3′R,6′R)-6-chloro-3,4-dihydro-2H,14′H-spiro[naphthalene-1,21′-[19]oxa[12]thia[1,13]diazatetracyclo[13.7.2.0^3,6.0^18,23]tetracosa[15,17,23]trien]-14′-one 12′,12′-dioxide] the IC50 was 13.6 nM.
O=C1NS(=O)(=O)CCCCC[C@@H]2CC[C@H]2CN2C[C@@]3(CCCc4ccccc43)COc3ccc1cc32 [Example 823, (1S,3′R,6′R)-3,4-dihydro-2H,14′H-spiro[naphthalene-1,21′-[19]oxa[12]thia[1,13]diazatetracyclo[13.7.2.0^3,6.0^18,23]tetracosa [15,17,23]trien]-14′-one 12′,12′-dioxide] was tested, and the IC50 was 48.2 nM.
O=C1NS(=O)(=O)CC/C=C/[C@@H]2CC[C@H]2CN2C[C@@]3(CCCc4cc(Cl)ccc43)COc3ccc1cc32 [Example 825, (1S,3′R,6′S, 7′E)-6-chloro-3,4-dihydro-2H,13′H-spiro[naphthalene-1,20′-[18]oxa[11]thia[1,12]diazatetracyclo[12.7.2.0^3,6.0^17,22]tricosa[7,14,16,22]tetraen]-13′-one 11′,11′-dioxide] showed an IC50 of 26.4 nM.
For O=C1NS(=O)(=O)CCC/C=C/[C@@H]2CC[C@H]2CN2C[C@@]3(CCCc4cc(Cl)ccc43)COc3ccc1cc32 [Example 829, (1S,3′R,6′S, 7′E)-6-chloro-3,4-dihydro-2H,14′H-spiro[naphthalene-1,21′-[19]oxa[12]thia[1,13]diazatetracyclo[13.7.2.0^3,6.0^18,23]tetracosa [7,15,17,23]tetraen]-14′-one 12′,12′-dioxide], the IC50 was 9.87 nM.
O=C1NS(=O)(=O)CCCC[C@@H]2CC[C@H]2CN2C[C@@]3(CCCc4cc(Cl)ccc43)COc3ccc1cc32 [Example 830, (1S,3′S,6′S)-6-chloro-3,4-dihydro-2H,13′H-spiro[naphthalene-1,20′-[18]oxa[11]thia[1,12]diazatetracyclo[14.7.2.0^3,6.0^19,24]tricosa[14, 16,22]trien]-13′-one 11′,11′-dioxide] was tested, and the IC50 was 21.1 nM.
O=C1NS(=O)(=O)CCCCCC(=O)[C@@H]2CC[C@H]2CN2C[C@@]3(CCCc4cc(Cl)ccc43)COc3ccc1cc32 [Example 832, (1S,3′R,6′R)-6-chloro-3,4-dihydro-2H,7′H,15′H-spiro[naphthalene-1,22′-[20]oxa[13]thia[1,14]diazatetracyclo[14.7.2.0^3,6.0^19,24]pentacosa [16,18,24]triene]-7′,15′-dione 13′,13′-dioxide] was tested, and the IC50 was 8.26 nM.
